In one assay the target is Bcl-2 (Homo sapiens, UniProt P10415). Put plainly: Bcl-2 binding affinity analysis (fluorescence polarization binding assay). The note with it: read-out: BcI2 (Ki, Bcl-2 binding affinity). The source says:
(§1) Bcl-2 and Bcl-xL binding may be determined using a variety of known methods. One such assay is a sensitive and quantitative in vitro binding assay using fluorescence polarization (FP) described by Wang, J.-L.; Zhang, Z-J.; Choksi, S.; Sjam. S.; Lu, Z.; Croce, C. M.; Alnemri, E. S.; Komgold, R.; Huang, Z. Cell permeable Bcl-2 binding peptides: a chemical approach to apoptosis induction in tumor cells. Cancer Res. 2000, 60, 1498-1502).
(§2) Bcl-2 and Bcl-xL binding affinity analysis data is presented below for various compounds of the invention.
Background: Fluorescence polarisation rises when a labelled molecule tumbles more slowly, as on binding a larger partner.

In another assay the target is Bcl-xL (Homo sapiens, UniProt Q07817). Briefly: Bcl-xL binding affinity analysis (fluorescence polarization binding assay). The note with it: read-out: BcI-XI (Ki, Bcl-xL binding affinity).
Sequence of Bcl-xL (Q07817 whole entry): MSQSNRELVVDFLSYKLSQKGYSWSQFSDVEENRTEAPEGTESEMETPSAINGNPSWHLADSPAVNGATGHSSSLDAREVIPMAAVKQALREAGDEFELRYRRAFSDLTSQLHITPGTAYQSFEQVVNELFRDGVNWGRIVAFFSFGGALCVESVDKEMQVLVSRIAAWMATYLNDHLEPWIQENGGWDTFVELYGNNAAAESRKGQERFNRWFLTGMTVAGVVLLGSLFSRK
From the text: as §1, §2

The structures appear in SMILES notation.

Sequence of Bcl-2 (P10415 whole entry): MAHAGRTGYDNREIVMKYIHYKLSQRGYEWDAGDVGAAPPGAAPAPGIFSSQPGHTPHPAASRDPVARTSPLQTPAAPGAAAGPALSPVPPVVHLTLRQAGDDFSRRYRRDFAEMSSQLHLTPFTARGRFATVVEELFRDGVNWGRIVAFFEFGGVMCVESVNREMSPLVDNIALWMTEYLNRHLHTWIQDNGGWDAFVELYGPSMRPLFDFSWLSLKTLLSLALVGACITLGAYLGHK

As to `CNC(=O)c1cc(-c2cccc(CN3O[C@@H](CNC(C)=O)[C@@H]([C@H](C)O)[C@H]3C(=O)N[C@H]3C[C@H]4C[C@@H]([C@@H]3C)C4(C)C)c2OC)cc(N(C)C)c1` [Compound 77], the Ki is 0.005 to 0.009 µM on Bcl-2 and 1 to 5 µM at Bcl-xL.
The matching figures for `CNC(=O)c1cc(-c2cccc(CN3O[C@@H](CNC(=O)CCC(=O)OC)[C@@H]([C@H](C)O)[C@H]3C(=O)N[C@H]3C[C@H]4C[C@@H]([C@@H]3C)C4(C)C)c2OC)cc(N(C)C)c1` [Compound 78]: above 0.009 µM and 5 to 10 µM.
The matching figures for `CNC(=O)c1cc(-c2cccc(CN3O[C@@H](CNC(=O)Nc4ccccc4)[C@@H]([C@H](C)O)[C@H]3C(=O)N[C@H]3C[C@H]4C[C@@H]([C@@H]3C)C4(C)C)c2OC)cc(N(C)C)c1` [Compound 79]: above 0.009 µM and 5 to 10 µM.
The corresponding values for `COc1c(CN2O[C@@H](CN(C)C)[C@@H]([C@H](C)O)[C@H]2C(=O)N[C@H]2C[C@H]3C[C@@H]([C@@H]2C)C3(C)C)cccc1-c1cc(C(=O)NCCc2ccccc2)cc(N(C)C)c1` [Compound 80] are 0.005 to 0.009 µM and 5 to 10 µM.
Consider `CNC(=O)c1cc(-c2cccc(CN3O[C@@H](CNCc4ccc(C(=O)O)cc4)[C@@H]([C@H](C)O)[C@H]3C(=O)N[C@H]3C[C@H]4C[C@@H]([C@@H]3C)C4(C)C)c2OC)cc(N(C)C)c1` [Compound 81], for which the results for the Ki at Bcl-2 and on Bcl-xL were above 0.009 µM and above 10 µM, respectively.
For the compound `CNC(=O)c1cc(-c2cccc(CN3O[C@@H](CNCc4ccncc4)[C@@H]([C@H](C)O)[C@H]3C(=O)N[C@H]3C[C@H]4C[C@@H]([C@@H]3C)C4(C)C)c2OC)cc(N(C)C)c1` [Compound 82], the Ki was above 0.009 µM on Bcl-2 and above 10 µM on Bcl-xL.
As to `CNC(=O)c1cc(-c2cccc(CN3O[C@@H](CNCc4ccccn4)[C@@H]([C@H](C)O)[C@H]3C(=O)N[C@H]3C[C@H]4C[C@@H]([C@@H]3C)C4(C)C)c2OC)cc(N(C)C)c1` [Compound 83], the values for the Ki on Bcl-2 and at Bcl-xL were above 0.009 µM and above 10 µM, respectively.
The corresponding values for `CNC(=O)c1cc(-c2cccc(CN3O[C@@H](CNCc4cccc(C(=O)O)c4)[C@@H]([C@H](C)O)[C@H]3C(=O)N[C@H]3C[C@H]4C[C@@H]([C@@H]3C)C4(C)C)c2OC)cc(N(C)C)c1` [Compound 84] are above 0.009 µM and above 10 µM.
The corresponding values for `CNC(=O)c1cc(-c2cccc(CN3O[C@@H](CNCc4ccccc4)[C@@H]([C@H](C)O)[C@H]3C(=O)N[C@H]3C[C@H]4C[C@@H]([C@@H]3C)C4(C)C)c2OC)cc(N(C)C)c1` [Compound 85] are above 0.009 µM and 5 to 10 µM.
The matching figures for `COc1c(CN2O[C@@H](CN=C(N(C)C)N(C)C)[C@@H]([C@H](C)O)[C@H]2C(=O)N[C@H]2C[C@H]3C[C@@H]([C@@H]2C)C3(C)C)cccc1-c1cc(C(=O)NCCc2ccccc2)cc(N(C)C)c1` [Compound 86]: above 0.009 µM and above 10 µM.
Take `CNC(=O)c1cc(-c2cccc(CN3O[C@@H](CN)[C@@H]([C@H](C)OC(=O)N(C)C)[C@H]3C(=O)N[C@H]3C[C@H]4C[C@@H]([C@@H]3C)C4(C)C)c2OC)cc(N(C)C)c1` [Compound 87]: the results for the inhibition constant Ki on Bcl-2 and at Bcl-xL were above 0.009 µM and above 10 µM, respectively.
The matching figures for `CNC(=O)c1cc(-c2cccc(CN3O[C@@H](CN)[C@@H]([C@H](C)OC(=O)NCCc4ccccc4)[C@H]3C(=O)N[C@H]3C[C@H]4C[C@@H]([C@@H]3C)C4(C)C)c2OC)cc(N(C)C)c1` [Compound 91]: above 0.009 µM and above 10 µM.
The matching figures for `CNC(=O)c1cc(-c2cccc(CN3O[C@@H](CN)[C@@H]([C@H](C)OC(=O)NCCN(C)C)[C@H]3C(=O)N[C@H]3C[C@H]4C[C@@H]([C@@H]3C)C4(C)C)c2OC)cc(N(C)C)c1` [Compound 92]: above 0.009 µM and above 10 µM.
The matching figures for `CNC(=O)O[C@@H](C)[C@@H]1[C@H](CN)ON(Cc2cccc(-c3cc(C(=O)NC)cc(N(C)C)c3)c2OC)[C@@H]1C(=O)N[C@H]1C[C@H]2C[C@@H]([C@@H]1C)C2(C)C` [Compound 93]: above 0.009 µM and above 10 µM.
Regarding `CCNC[C@@H]1ON(Cc2cccc(-c3cc(C(=O)NC)cc(N(C)C)c3)c2OC)[C@H](C(=O)N[C@H]2C[C@H]3C[C@@H]([C@@H]2C)C3(C)C)[C@@H]1[C@H](C)O` [Compound 94], the values for the Ki on Bcl-2 and at Bcl-xL were 0.001 to 0.005 µM and above 10 µM, respectively.
The corresponding values for `CNC(=O)c1cc(-c2cccc(CN3O[C@@H](CNCC(C)C)[C@@H]([C@H](C)O)[C@H]3C(=O)N[C@H]3C[C@H]4C[C@@H]([C@@H]3C)C4(C)C)c2OC)cc(N(C)C)c1` [Compound 95] are 0.005 to 0.009 µM and 5 to 10 µM.
As to `CNC(=O)c1cc(-c2cccc(CN3O[C@@H](CNCC4CC4)[C@@H]([C@H](C)O)[C@H]3C(=O)N[C@H]3C[C@H]4C[C@@H]([C@@H]3C)C4(C)C)c2OC)cc(N(C)C)c1` [Compound 96], the values for the inhibition constant (Ki) at Bcl-2 and at Bcl-xL were 0.005 to 0.009 µM and 5 to 10 µM, respectively.
The corresponding values for `CNC(=O)c1cc(-c2cccc(CN3O[C@@H](CNC(C)C)[C@@H]([C@H](C)O)[C@H]3C(=O)N[C@H]3C[C@H]4C[C@@H]([C@@H]3C)C4(C)C)c2OC)cc(N(C)C)c1` [Compound 97] are above 0.009 µM and above 10 µM.
As for `CNC(=O)c1cc(-c2cccc(CN3O[C@@H](CN(CC(C)C)CC(C)C)[C@@H]([C@H](C)O)[C@H]3C(=O)N[C@H]3C[C@H]4C[C@@H]([C@@H]3C)C4(C)C)c2OC)cc(N(C)C)c1` [Compound 98], the inhibition constant (Ki) at Bcl-2 was above 0.009 µM; on Bcl-xL, 5 to 10 µM.
For the compound `CNC(=O)c1cc(-c2cccc(CN3O[C@@H](CN(C)C)[C@@H]([C@H](C)O)[C@H]3C(=O)N[C@H]3C[C@H]4C[C@@H]([C@@H]3C)C4(C)C)c2OC)cc(N(C)C)c1` [Compound 99], the figures for the inhibition constant Ki at Bcl-2 and at Bcl-xL were above 0.009 µM and above 10 µM, respectively.
The corresponding values for `C[C@@H]1[C@@H](NC(=O)[C@@H]2[C@H]([C@H](C)O)[C@H](CO)ON2Cc2cccc(-c3cc(C(=O)N[C@@H](Cc4ccccc4)CN(C)C)cc(N(C)C)c3)c2OCCN(C)C)C[C@H]2C[C@@H]1C2(C)C` [Compound 100] are below 0.001 µM and 1 to 5 µM.
The corresponding values for `COc1c(CN2O[C@@H](CO)[C@@H]([C@H](C)O)[C@H]2C(=O)N[C@H]2C[C@H]3C[C@@H]([C@@H]2C)C3(C)C)cccc1-c1cc(C(=O)N[C@H](Cc2ccccc2)CN(C)C)cc(N(C)C)c1` [Compound 113] are below 0.001 µM and below 1 µM.
The corresponding values for `COc1c(CN2O[C@@H](CNC(=O)CCC(=O)O)[C@@H]([C@H](C)O)[C@H]2C(=O)N[C@H]2C[C@H]3C[C@@H]([C@@H]2C)C3(C)C)cccc1-c1cc(C(=O)N[C@H](CN(C)C)CC(C)(C)C)cc(N(C)C)c1` [Compound 114] are below 0.001 µM and below 1 µM.
`COc1c(CN2O[C@@H](CNC(=O)CCN(C)C)[C@@H]([C@H](C)O)[C@H]2C(=O)N[C@H]2C[C@H]3C[C@@H]([C@@H]2C)C3(C)C)cccc1-c1cc(C(=O)N[C@H](CN(C)C)CC(C)(C)C)cc(N(C)C)c1` [Compound 115]: the figures for the inhibition constant Ki on Bcl-2 and at Bcl-xL were below 0.001 µM and below 1 µM, respectively.
As for `COc1c(CN2O[C@@H](CO)[C@@H]([C@H](C)O)[C@H]2C(=O)N[C@H]2C[C@H]3C[C@@H]([C@@H]2C)C3(C)C)cccc1-c1cc(C(=O)NCCc2ccccc2)cc(N(C)C)c1` [Compound 126], the results for the Ki at Bcl-2 and on Bcl-xL were below 0.001 µM and below 1 µM, respectively.
With `COc1c(-c2cc(C(=O)N[C@@H](Cc3ccccc3)CN(C)C)cc(N(C)C)c2)ccc(F)c1CN1O[C@@H](CN)[C@@H]([C@H](C)O)[C@H]1C(=O)N[C@H]1C[C@H]2C[C@@H]([C@@H]1C)C2(C)C` [Compound 127], the values for the Ki at Bcl-2 and at Bcl-xL were below 0.001 µM and below 1 µM, respectively.
For `COc1c(CN2O[C@@H](CO)[C@@H]([C@H](C)O)[C@H]2C(=O)N[C@H]2C[C@H]3C[C@@H]([C@@H]2C)C3(C)C)cccc1-c1cc(C(=O)N[C@H](CN(C)C)[C@H](O)c2ccccc2)cc(N(C)C)c1` [Compound 136], the inhibition constant Ki on Bcl-2 was below 0.001 µM; at Bcl-xL, below 1 µM.
Consider `COc1c(-c2cc(C(=O)N[C@H](CN(C)C)[C@H](O)c3ccccc3)cc(N(C)C)c2)ccc(F)c1CN1O[C@@H](CO)[C@@H]([C@H](C)O)[C@H]1C(=O)N[C@H]1C[C@H]2C[C@@H]([C@@H]1C)C2(C)C` [Compound 143], for which the inhibition constant Ki was below 0.001 µM on Bcl-2 and below 1 µM at Bcl-xL.
The corresponding values for `COc1c(CN2O[C@@H](CO)[C@@H]([C@H](C)O)[C@H]2C(=O)N[C@H]2C[C@H]3C[C@@H]([C@@H]2C)C3(C)C)cccc1-c1cc(C(=O)N[C@H](CN(C)C)[C@@H](NS(C)(=O)=O)c2ccccc2)cc(N(C)C)c1` [Compound 144] are below 0.001 µM and below 1 µM.
The matching figures for `COc1c(-c2cc(C(=O)N[C@H](CN(C)C)[C@@H](NS(C)(=O)=O)c3ccccc3)cc(N(C)C)c2)ccc(F)c1CN1O[C@@H](CO)[C@@H]([C@H](C)O)[C@H]1C(=O)N[C@H]1C[C@H]2C[C@@H]([C@@H]1C)C2(C)C` [Compound 151]: below 0.001 µM and below 1 µM.
The corresponding values for `COc1c(CN2O[C@@H](CO)[C@@H]([C@H](C)O)[C@H]2C(=O)N[C@H]2C[C@H]3C[C@@H]([C@@H]2C)C3(C)C)cccc1-c1cc(C(=O)N[C@H](CN(C)C)[C@H](OC)c2ccccc2)cc(N(C)C)c1` [Compound 152] are below 0.001 µM and below 1 µM.
With `COc1c(CN2O[C@@H](CO)[C@@H]([C@H](C)O)[C@H]2C(=O)N[C@H]2C[C@H]3C[C@@H]([C@@H]2C)C3(C)C)cccc1-c1cc(C(=O)N[C@H](CN2CCCC2)[C@H](O)c2ccccc2)cc(N(C)C)c1` [Compound 160], the Ki was below 0.001 µM on Bcl-2 and below 1 µM at Bcl-xL.

In general, Ki refers to a measure of affinity in units of concentration, obtained from inhibition or displacement.

(Values after patent US8178690B2, “Compounds and methods for inhibiting the interaction of BCL proteins with binding partners” (Infinity Pharmaceuticals, Inc., priority 2006, dated 2012).)
